According to US20110280831A1, “COMBINATIONS COMPRISING METHOTREXATE AND DHODH INHIBITORS” (priority 2009, published 2011):

molecular target: human DHODH (Homo sapiens, UniProt Q02127); experiment: Inhibition of human DHODH activity assay (DCIP chromogen reduction); format: biochemical; settings: enzyme extracts, 10 min at room temperature, absorbance at 600 nm, duplicate; read-out: hDHODH IC50
Experimental: DHODH activity and its inhibition were studied using a chromogen reduction assay with DCIP (2,6-dichlorophenol-indophenol).
Enzyme extracts (8 μl, ˜1.5 μg of human protein) were incubated in 96-well plates. The assay mixture (200 μl) contained 200 μM CoQD, 100 μM L-DHO, 120 μM DCIP in the assay buffer (100 mM HEPES pH 8.0, 150 mM NaCl, 10% Glicerol, 0.05% Triton X-100) and 2 μl of test compound. The compounds were dissolved in DMSO at a stock concentration of 1 mM, and tested at different concentrations varying from 10 μM to 1 pM to calculate an IC50 (concentration of inhibitor required for 50% of inhibition).
The reaction was initiated by adding the enzyme and then incubated for 10 min at room temperature before measuring DCIP reduction by counting a decrease in absorbance at 600 nm using standard instrumentation (Spectramax).
All reactions were carried out in duplicate and graphs, determining IC50 values for each compound, were plotted using the ABase software.

human DHODH, sequence (Q02127 whole entry): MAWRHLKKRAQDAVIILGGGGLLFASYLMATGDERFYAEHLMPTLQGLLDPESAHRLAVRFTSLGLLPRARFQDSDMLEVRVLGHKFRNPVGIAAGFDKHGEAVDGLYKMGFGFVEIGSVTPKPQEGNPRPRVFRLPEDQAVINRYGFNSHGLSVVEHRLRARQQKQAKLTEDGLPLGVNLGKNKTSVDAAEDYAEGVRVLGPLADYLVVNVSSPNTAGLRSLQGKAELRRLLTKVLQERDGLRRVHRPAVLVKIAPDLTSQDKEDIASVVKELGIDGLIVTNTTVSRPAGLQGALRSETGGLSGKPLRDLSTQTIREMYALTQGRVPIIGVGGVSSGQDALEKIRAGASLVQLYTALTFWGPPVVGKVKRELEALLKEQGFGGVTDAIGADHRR

| SMILES | IC50 |
| --- | --- |
| O=C(O)c1cc(C2CC2)ccc1Nc1cnc(-c2ccccc2)nc1 [Compound 1, 5-cyclopropyl-2-(2-phenylpyrimidin-5-ylamino)benzoic acid] | 105 nM |
| Cc1ccc(Nc2ccc(-c3cccc(C(F)(F)F)c3)nc2)c(C(=O)O)c1 [Compound 4, 5-Methyl-2-(6-(3-(trifluoromethyl)phenyl)pyridin-3-ylamino)benzoic acid] | 98 nM |
| O=C(O)c1cc(C2CC2)ccc1Nc1cnc(-c2c(F)cc(O)cc2F)nc1 [Compound 6, 5-cyclopropyl-2-(2-(2,6-difluoro-4-hydroxyphenyl)pyrimidin-5-ylamino)benzoic acid] | 57 nM |
| COc1ncc(Nc2ccc(C3CC3)cc2C(=O)O)cc1-c1ccccc1 [Compound 7, 5-Cyclopropyl-2-(6-methoxy-5-phenylpyridin-3-ylamino)benzoic acid] | 49 nM |
| Cc1ccc(Nc2cnc(-c3ccccc3)c(F)c2)c(C(=O)O)c1 [Compound 8, 2-(5-Fluoro-6-phenylpyridin-3-ylamino)-5-methylbenzoic acid] | 18 nM |
| O=C(O)c1cc(C2CC2)ccc1Nc1cnc(-c2ccccc2C2CC2)nc1 [Compound 14, 5-Cyclopropyl-2-(2-(2-cyclopropylphenyl)pyrimidin-5-ylamino)benzoic acid] | 57 nM |
| O=C(O)c1cc(C2CC2)ccc1Nc1cncc(-c2ccccc2)c1 [Compound 15, 5-cyclopropyl-2-(5-phenylpyridin-3-ylamino)benzoic acid] | 113 nM |
| Cc1ccc(Nc2cc(Cl)cnc2-c2ccccc2)c(C(=O)O)c1 [Compound 18, 2-(5-Chloro-2-phenylpyridin-3-ylamino)-5-methylbenzoic acid] | 62 nM |
| O=C(O)c1cc(C2CC2)ccc1Nc1cnc(-c2ccccc2)c(-c2ccccc2)c1 [Compound 19, 5-Cyclopropyl-2-(5,6-diphenylpyridin-3-ylamino)benzoic acid] | 10 nM |
| O=C(O)c1cc(C2CC2)ccc1Nc1cnc(-c2cccc(OC3CC3)c2)nc1 [Compound 22, 2-(2-(3-Cyclopropoxyphenyl)pyrimidin-5-ylamino)-5-cyclopropylbenzoic acid] | 114 nM |
| O=C(O)c1cc(C2CC2)ccc1Nc1cnc(C2CC2)c(-c2ccccc2)c1 [Compound 25, 5-cyclopropyl-2-(6-cyclopropyl-5-phenylpyridin-3-ylamino)benzoic acid] | 28 nM |
| Cc1ccc(Nc2cnc(N3CCCCC3)c(C)c2)c(C(=O)O)c1 [Compound 30, 5-Methyl-2-(5-methyl-6-(piperidin-1-yl)pyridin-3-ylamino)benzoic acid] | 41 nM |
| Cc1ccc(Nc2cnc(N3CCCCCC3)c(C)c2)c(C(=O)O)c1 [Compound 31, 2-(6-(Azepan-1-yl)-5-methylpyridin-3-ylamino)-5-methylbenzoic acid] | 119 nM |
| Cc1ccc(Nc2ccc(-c3ccncc3Cl)nc2)c(C(=O)O)c1 [Compound 34, 2-(3′-chloro-2,4′-bipyridin-5-ylamino)-5-methylbenzoic acid] | 109 nM |
| CCOc1cccc(-c2ccc(Nc3ccc(C)cc3C(=O)O)cn2)c1 [Compound 41, 2-(6-(3-Ethoxyphenyl)pyridin-3-ylamino)-5-methylbenzoic acid] | 190 nM |
| CCOc1cccc(-c2ncc(Nc3ccc(C)cc3C(=O)O)cc2C)c1 [Compound 42, 2-(6-(3-Ethoxyphenyl)-5-methylpyridin-3-ylamino)-5-methylbenzoic acid] | 30 nM |
| CCOc1cccc(-c2cc(C)c(Nc3ccc(C)cc3C(=O)O)cn2)c1 [Compound 44, 2-(6-(3-Ethoxyphenyl)-4-methylpyridin-3-ylamino)-5-methylbenzoic acid] | 78 nM |
| COc1cccc(-c2ncc(Nc3ccc(C(F)(F)F)cc3C(=O)O)cc2C)c1 [Compound 50, 2-(6-(3-Methoxyphenyl)-5-methylpyridin-3-ylamino)-5-(trifluoromethyl)benzoic acid] | 138 nM |
| COc1cccc(-c2ncc(Nc3ccc(C)cc3C(=O)O)cc2C)c1 [Compound 51, 2-(6-(3-Methoxyphenyl)-5-methylpyridin-3-ylamino)-5-methylbenzoic acid] | 21 nM |
| CCOc1ccc(F)c(-c2ccc(Nc3ccc(C)cc3C(=O)O)cn2)c1 [Compound 54, 2-(6-(5-Ethoxy-2-fluorophenyl)pyridin-3-ylamino)-5-methylbenzoic acid] | 19 nM |
| Cc1ccc(Nc2ccc(-c3ccccc3F)nc2)c(C(=O)O)c1 [Compound 57, 2-(6-(2-Fluorophenyl)pyridin-3-ylamino)-5-methylbenzoic acid] | 91 nM |

| SMILES | IC50 |
| --- | --- |
| Cc1ccc(Nc2ccc(-c3cc(OC(C)C)ccc3F)nc2)c(C(=O)O)c1 [Compound 66, 2-(6-(2-Fluoro-5-isopropoxyphenyl)pyridin-3-ylamino)-5-methylbenzoic acid] | 28 nM |
| Cc1ccc(Nc2cnc(-c3cccc(OC(C)C)c3)c(C)c2)c(C(=O)O)c1 [Compound 67, 2-(6-(3-Isopropoxyphenyl)-5-methylpyridin-3-ylamino)-5-methylbenzoic acid] | 11 nM |
| Cc1ccc(Nc2cnc(-c3cccc(C(N)=O)c3)c(C)c2)c(C(=O)O)c1 [Compound 73, 2-(6-(3-Carbamoylphenyl)-5-methylpyridin-3-ylamino)-5-methylbenzoic acid] | 190 nM |
| COc1ccc(F)c(-c2cc(C)c(Nc3ccc(C)cc3C(=O)O)cn2)c1 [Compound 75, 2-(6-(2-Fluoro-5-methoxyphenyl)-4-methylpyridin-3-ylamino)-5-methylbenzoic acid] | 97 nM |
| COc1cccc(-c2ncc(Nc3ccc(C)cc3C(=O)O)cc2C(F)(F)F)c1 [Compound 77, 2-(6-(3-Methoxyphenyl)-5-(trifluoromethyl)pyridin-3-ylamino)-5-methylbenzoic acid] | 12 nM |
| Cc1ccc(Nc2cnc(-c3cccc(C(=O)N(C)C)c3)c(C)c2)c(C(=O)O)c1 [Compound 79, 2-(6-(3-(Dimethylcarbamoyl)phenyl)-5-methylpyridin-3-ylamino)-5-methylbenzoic acid] | 33 nM |
| Cc1cc(Nc2ccc(C3CC3)cc2C(=O)O)cnc1-c1cccc(OC(F)(F)F)c1 [Compound 89, 5-Cyclopropyl-2-(5-methyl-6-(3-(trifluoromethoxy)phenyl)pyridin-3-ylamino)benzoic acid] | 5 nM |
| Cc1cc(Nc2ccc(C3CC3)cc2C(=O)O)cnc1-c1ccccc1 [Compound 91, 5-Cyclopropyl-2-(5-methyl-6-phenylpyridin-3-ylamino)benzoic acid] | 6 nM |
| Cc1ccc(Nc2cnc(-c3ccccc3C(F)(F)F)c(C)c2)c(C(=O)O)c1 [Compound 93, 5-Methyl-2-(5-methyl-6-(2-(trifluoromethyl)phenyl)pyridin-3-ylamino)benzoic acid] | 20 nM |
| Cc1ccc(Nc2cnc(-c3cccc(Cl)c3)c(C)c2)c(C(=O)O)c1 [Compound 95, 2-(6-(3-Chlorophenyl)-5-methylpyridin-3-ylamino)-5-methylbenzoic acid] | 10 nM |
| Cc1ccc(Nc2cnc(-c3ccncc3F)c(C)c2)c(C(=O)O)c1 [Compound 101, 2-(3′-Fluoro-3-methyl-2,4′-bipyridin-5-ylamino)-5-methylbenzoic acid] | 37 nM |
| O=C(O)c1cc(C2CC2)ccc1Nc1cnc(-c2ccccc2)c(C(F)(F)F)c1 [Compound 105, 5-Cyclopropyl-2-(6-phenyl-5-(trifluoromethyl)pyridin-3-ylamino)benzoic acid] | 2 nM |
| COc1cccc(-c2ncc(Nc3ccc(C4CC4)cc3C(=O)O)cc2C(F)(F)F)c1 [Compound 107, 5-Cyclopropyl-2-(6-(3-methoxyphenyl)-5-(trifluoromethyl)pyridin-3-ylamino)benzoic acid] | 7 nM |
| O=C(O)c1cc(Cl)ccc1Nc1ccc(-c2ccccc2Cl)nc1 [Compound 110, 5-Chloro-2-(6-(2-chlorophenyl)pyridin-3-ylamino)benzoic acid] | 145 nM |
| O=C(O)c1cc(C2CC2)ccc1Nc1ccc(-c2ccccc2Cl)nc1 [Compound 112, 2-(6-(2-Chlorophenyl)pyridin-3-ylamino)-5-cyclopropylbenzoic acid] | 4 nM |
| Cc1ccc(Nc2ccc(-c3ccncc3F)nc2)c(C(=O)O)c1 [Compound 116, 2-(3′-Fluoro-2,4′-bipyridin-5-ylamino)-5-methylbenzoic acid] | 90 nM |
| Cc1ccc(Nc2cnc(-c3cccc(C(=O)N4CCCC4)c3)c(C)c2)c(C(=O)O)c1 [Compound 125, 5-Methyl-2-(5-methyl-6-(3-(pyrrolidine-1-carbonyl)phenyl)pyridin-3-ylamino)benzoic acid] | 9 nM |
| Cc1ccc(Nc2cnc(-c3cccc(C(=O)NC4CC4)c3)c(C)c2)c(C(=O)O)c1 [Compound 126, 2-(6-(3-(Cyclopropylcarbamoyl)phenyl)-5-methylpyridin-3-ylamino)-5-methylbenzoic acid] | 12 nM |
| O=C(O)c1cc(C2CC2)ccc1Nc1cnc(-c2ccccc2C(F)(F)F)nc1 [Compound 128, 2-(2-(2-trifluoromethylphenyl)pyrimidin-5-ylamino)-5-cyclopropylbenzoic acid] | 9 nM |
| Cc1ccccc1-c1ncc(Nc2ccc(C3CC3)cc2C(=O)O)cn1 [Compound 129, 2-(2-o-tolylpyrimidin-5-ylamino)-5-cyclopropylbenzoic acid] | 12 nM |
| O=C(O)c1cc(C2CC2)ccc1Nc1cnc(-c2cc(F)ccc2F)nc1 [Compound 131, 2-(2-(2,5-difluorophenyl)pyrimidin-5-ylamino)-5-cyclopropylbenzoic acid] | 38 nM |
